Experimental data as given in PMC10333884, “Large‐scale phosphomimetic screening identifies phospho‐modulated motif‐based protein interactions” (Molecular Systems Biology, 2023).
Residues, ends and D or L forms follow the SMILES beside them. *: point of attachment. FITC = O=C1OC2(c3ccc(O)cc3Oc3cc(O)ccc32)c2ccc(NC(=S)*)cc21

Columns and labels:
[1] = target: T1, RANBP2 RanBD1 4 (Homo sapiens, UniProt P49792); assay: FP saturation experiment, RANBP2 RanBD1 4; conditions: FP saturation (direct binding), 5 nM FITC-labelled peptide, 50 mM sodium phosphate pH 7.4, room temperature; at least technical triplicates; probe from this study; read-out: KD [µM] + SE
T1 construct: GST (cleaved yes); made in house; host or cells: Escherichia coli BL21-Gold(DE3)
T1 sequence (P49792 2924-3050): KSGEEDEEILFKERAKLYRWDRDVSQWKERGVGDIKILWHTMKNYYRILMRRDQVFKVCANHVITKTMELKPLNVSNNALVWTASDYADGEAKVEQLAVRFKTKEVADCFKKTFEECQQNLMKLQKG
Experimental: (§1) FP experiments were performed as described previously (Kliche et al, [2021]). Shortly, in order to monitor the binding event, FITC‐labelled peptides were used (excitation 495 nm, emission: 535 nm) and the FP signal was recorded in mP on a SpectraMax iD5 Multi‐Mode Microplate Reader (Molecular Devices) by measuring the emitted light in two angels. The measurements were performed at room temperature and prepared in nonbinding black half area 96‐well microplates (Corning®; 50 μl/well). For measuring direct binding, that is saturation curves, a 1:1 dilution series of protein domain (25 μl/well) was generated in 50 mM sodium phosphate buffer pH 7.4 and the measurement performed with 5 nM FITC‐labelled peptide (25 μl/well). The buffer‐corrected values were subsequently plotted with PRISM and fitted to the quadratic equation (Gianni et al, [2005]).

[2] = target: T2, PDCD6IP Alix V domain (Homo sapiens, UniProt Q8WUM4); assay: FP saturation experiment, PDCD6IP Alix V domain; conditions: FP saturation (direct binding), 5 nM FITC-labelled peptide, 50 mM sodium phosphate pH 7.4, room temperature; at least technical triplicates; reference for probe peptide RiboVD, Mihalič et al, to be published; read-out: KD [µM] + SE
T2 construct: GST (cleaved yes); made in house; host or cells: Escherichia coli BL21-Gold(DE3)
T2 sequence (Q8WUM4 360-702): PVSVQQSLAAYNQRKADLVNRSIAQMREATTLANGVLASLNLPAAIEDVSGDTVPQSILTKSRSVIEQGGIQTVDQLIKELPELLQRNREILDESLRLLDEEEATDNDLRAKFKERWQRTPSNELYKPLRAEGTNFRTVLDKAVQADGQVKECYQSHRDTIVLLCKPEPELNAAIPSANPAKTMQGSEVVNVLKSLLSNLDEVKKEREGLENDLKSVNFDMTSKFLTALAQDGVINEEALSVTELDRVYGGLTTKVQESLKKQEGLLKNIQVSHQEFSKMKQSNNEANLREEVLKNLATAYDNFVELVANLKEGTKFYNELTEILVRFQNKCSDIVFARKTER
Experimental: as §1

CC(C)C[C@H](NC(=O)[C@H](C)NC(=O)[C@H](CCC(=O)O)NC(=O)[C@H](CCCCN)NC(=S)Nc1ccc2c(c1)C(=O)OC21c2ccc(O)cc2Oc2cc(O)ccc21)C(=O)N[C@@H](C)C(=O)N[C@H](C(=O)N1CCC[C@H]1C(=O)N[C@@H](CC(C)C)C(=O)N1CCC[C@H]1C(=O)N[C@@H](CCCCN)C(N)=O)[C@@H](C)O [FITC-C7orf25] ({FITC}-KEALATPLPK-NH2)
Kd [1]: 22 ± 1 µM

CC(C)C[C@H](NC(=O)[C@H](CO)NC(=O)[C@@H](NC(=O)[C@H](CC(C)C)NC(=O)[C@@H]1CCCN1C(=O)[C@@H]1CCCN1C(=O)[C@H](Cc1ccc(O)cc1)NC(=O)[C@H](CC(C)C)NC(=O)[C@H](CO)NC(=S)Nc1ccc2c(c1)C(=O)OC21c2ccc(O)cc2Oc2cc(O)ccc21)[C@@H](C)O)C(=O)N[C@@H](CCCNC(=N)N)C(=O)O [FITC-HIV1_Gag] ({FITC}-SLYPPLTSLR-OH)
Kd [2]: 3.6 ± 0.3 µM
